The values that follow are results of earlier work, collected in publication PMC9697394, “Recent Synthesis, Characterization, and Pharmacological Evaluation of Multifunctional Hemorphins Containing Non-Natural Amino Acids with Potential Biological Importance” (Pharmaceuticals, 2022).

Usually IC50 stands for the point on the concentration scale where inhibition reaches its midpoint.

Data set [1] has as its system mice. The following applies: MES test in mice.
In data set [2] the test system is mice. The following applies: rotarod. Background: Falling from the rotarod earlier than controls is read as motor impairment.
Data set [3] deals with mice. The note with it: 6 Hz test in mice, TPE 10 min. The text has this: Modifications have been made by replacing Pro at position 2 with the unnatural and conformationally restricted amino acids Ac5c and Ac6c, as well as introducing the adamantane residue from the N-terminus of the hemorphin-4 molecule that would lead to multiple target systems.
The conditions of data set [4]: for isoelectric point (pI): Figure 6; for charge at pH 7.4 (in words): based on pKa constants and isoelectric points. The text has this: The structure–activity relationship of a series of new analogs of the shortest of all hemorphins, hemorphin-4, was elucidated by Todorov et al. (compounds P4-1, P4-2, P4-3, P4-4, and P4-5). Modifications have been made by replacing Pro at position 2 with the unnatural and conformationally restricted amino acids Ac5c and Ac6c, as well as introducing the adamantane residue from the N-terminus of the hemorphin-4 molecule that would lead to multiple target systems. […] It is known that some identical amino acid residues can have different reactivity with respect to given chemical reagents. For example, in an enzyme molecule, only one or a small number of side chains of amino acid residues located in the “active” center can bind substrates or coenzymes, while others with the same chemical composition cannot. As is known, a large part of the hydro ...

The conditions of data set [5]: by potentiometric titration. The text has this: Table 6 Parameters of the voltammetric measurements and the electrochemical data of peptides. | column: pKa1; pKa2 Constants
The test system of data set [6] is rat locus coeruleus neurons. The following applies: in vitro LC neurons; read-out: IC50, inhibition of the spontaneous firing. The source says: Table 5 Bioactive hemorphin peptides. | column: Concentration/Dose
Data set [7] concerns mice. The note with it: ivPTZ seizure test in mice; TPE 10 min; rank order, hemorphin-7 analogs containing unnatural amino acids. The text has this: Moreover, this peptide analog had the lowest ...
The mark [8] stands for this setting: TPE 10 min, hemorphin-4 analogs.
Setting [9] is: Table 2 (MES), TPE 10 min, hemorphin-4 analogs, unit inferred.
[10] abbreviates: TPE 10 min, LVV- and VV-hemorphin-7 analogs.
[11] abbreviates: Table 2 (MES), LVV- and VV-hemorphin-7 analogs, unit inferred.
Setting [12] is: TPE 10 min, VV-hemorphin-5 analogs.
[13] abbreviates: Table 2 (MES), VV-hemorphin-5 analogs, unit inferred.
[14] abbreviates: LVV- and VV-hemorphin-7 analogs.
[15] abbreviates: VV-hemorphin-7 analogs containing unnatural amino acids.

Read-outs that look alike come from different tables or passages of the source. Where no end group is shown, it is not given here. [ ]: non-standard residue; d: D form. Ac6c = NC1(C(=O)O)CCCCC1; Orn = NCCC[C@H](N)C(=O)O; Ac5c = NC1(C(=O)O)CCCC1; Dab = NCC[C@H](N)C(=O)O; Dap = NC[C@H](N)C(=O)O; Aib = CC(C)(N)C(=O)O; Sar = CNCC(=O)O

Take `O=C1NC(=O)C(c2ccccc2)(c2ccccc2)N1` [Phenytoin, 5,5′-diphenylhydantoin, reference compound]: the “ED50 (median effective dose)” value in data set [1] (TPE 60 min, reference drug, ref not given) is 4.92 mg/kg. The “TD50 (median minimal neurotoxic dose)” value in data set [2] (TPE 60 min, Table 2, ref not given) is greater than 100 mg/kg.
On to Aaa-Tyr-Ac5c-Trp-Thr-NH2 [P4-4], for which the “ED50 (median effective dose)” value in data set [3] (hemorphin-4 analogs) is listed as 0.44 µg. The “ED50 (median effective dose)” value in data set [1] (setting [8]) is 2.33 µg. Moreover, in data set [4], the “isoelectric point (pI)” value was “about 7” and the “charge at pH 7.4 (in words)” value is given as “positively charged”. Further, the TD50 (median minimal neurotoxic dose) in data set [2] (setting [9]) was greater than 10 mg/kg. Moreover, in data set [5], the pKa1 is on record as 6.16 and the pKa2 is reported as 8.90.
On to Aaa-Tyr-Ac6c-Trp-Thr-NH2 [P4-5], for which the “ED50 (median effective dose)” value in data set [3] (hemorphin-4 analogs) was 0.64 µg. In data set [1] (setting [8]), the “ED50 (median effective dose)” value is on record as 0.41 µg. Further, in data set [4], the “isoelectric point (pI)” value is reported as “about 7” and the “charge at pH 7.4 (in words)” value is on record as “positively charged”. Also, the TD50 (median minimal neurotoxic dose) in data set [2] (setting [9]) was greater than 10 mg/kg. In data set [5], the pKa1 is 6.20 and the pKa2 is recorded as 9.06.
For Aaa-Tyr-Pro-Trp-Thr-NH2 [P4-3], the “ED50 (median effective dose)” value in data set [3] (hemorphin-4 analogs) is listed as 0.83 µg. In addition, the “ED50 (median effective dose)” value in data set [1] (setting [8]) is given as 1.66 µg. In data set [2] (setting [9]), the TD50 (median minimal neurotoxic dose) was greater than 10 mg/kg. Also, in data set [5], the pKa1 was 3.88 and the pKa2 was 6.93.
With “D-Leu-Val-Val-Tyr-Pro-Trp-Thr-Gln-Arg-D-Phe-NH2 [H7-3]”, the “ED50 (median effective dose)” value in data set [1] (setting [10]) is listed as 0.68 µg. Also, in data set [2] (setting [11]), the TD50 (median minimal neurotoxic dose) was greater than 8 mg/kg. In data set [5], the pKa1 is on record as 3.05 and the pKa2 is listed as 6.78.
With DGRVVYPWTQRFRGD-NH2 [RGD2], in data set [5], the pKa1 is reported as 3.48 and the pKa2 is listed as 6.34.
Consider IVVYPWTQ-NH2 [V6], for which the results for the “ED50 (median effective dose)” value in data set [3] (VV-hemorphin-5 analogs) and in data set [1] (setting [12]) were 5.55 µg and 16.77 µg, respectively. In addition, the TD50 (median minimal neurotoxic dose) in data set [2] (setting [13]) was greater than 20 mg/kg. Further, the “pKa constant (one value given)” value in data set [5] was 8.01, [48, 49].
On to IVVYPWTQR[dF]-NH2 [H7-1], for which the “ED50 (median effective dose)” value in data set [3] (setting [14]) is 0.33 µg. Moreover, in data set [5], the pKa1 is recorded as 2.98 and the pKa2 is reported as 6.12.
Take IVYPWTQR[dF]-NH2 [H7-2]: in data set [3] (setting [14]), the “ED50 (median effective dose)” value is recorded as 2.6 µg. Besides, the “ED50 (median effective dose)” value in data set [1] (setting [10]) is 0.94 µg. Besides, in data set [2] (setting [11]), the TD50 (median minimal neurotoxic dose) is greater than 8 mg/kg. Also, in data set [5], the pKa1 was 3.09 and the pKa2 was 6.62.
For the molecule Tyr-D-Arg-Phe-Lys-NH2 [DALDA], in data set [6], the IC50 was 20 nM.
In the case of Tyr-Pro-Leu-Gly-NH2 [Tyr-MIF-1], the IC50 in data set [6] was 37500 nM.
Tyr-Pro-Phe-Phe-NH2 [endomorphin-2]: the IC50 in data set [6] was 5.3 nM.
For the molecule Tyr-Pro-Phe-Pro-NH2 [morphiceptin], in data set [6], the half-maximal inhibitory concentration (IC50) is 65 nM.
Tyr-Pro-Trp-Gly-NH2 [Tyr-W-MIF-I]: the IC50 in data set [6] is 3800 nM.
For the molecule Tyr-Pro-Trp-Phe-NH2 [endomorphin-1], in data set [6], the IC50 was 8.8 nM.
Turning to Tyr-Pro-Trp-Thr [hemorphin-4], in data set [6], the IC50 is 6700 nM.
VVYPWTK-NH2 [V5]: the “ED50 (median effective dose)” value in data set [3] (VV-hemorphin-5 analogs) is recorded as 9.89 µg; in data set [1] (setting [12]) it was 3.19 µg. Besides, the TD50 (median minimal neurotoxic dose) in data set [2] (setting [13]) is greater than 20 mg/kg. Moreover, the “pKa constant (one value given)” value in data set [5] was 8.24, [48, 49].
VVYPWTQRFRGD-NH2 [RGD1]: in data set [5], the pKa1 is listed as 3.53 and the pKa2 is on record as 6.42.
Consider VVYPWT[Dab]-NH2 [V3], for which the “pKa constant (one value given)” value in data set [5] is 8.12, [48, 49].
Regarding VVYPWT[Dab]RF-NH2 [VV-H-5], the “ED50 (median effective dose)” value in data set [3] (setting [15]) was 0.89 µg. Moreover, in data set [5], the “pKa (Dap, Dab)” value is on record as 7.21; the “pKa (Tyr)” value is given as 5.98; the “pKa (Val)” value is 8.08.
Consider VVYPWT[Dap]-NH2 [V2], for which the “ED50 (median effective dose)” value in data set [3] (VV-hemorphin-5 analogs) is 9.97 µg. Also, the “pKa constant (one value given)” value in data set [5] is 9.23, [48, 49].
In the case of VVYPWT[Dap]RF-NH2 [VV-H-4], the “ED50 (median effective dose)” value in data set [3] (setting [15]) was 3.83 µg. Also, in data set [7], the “Comparison of Activity Related to the Threshold Dose (µg/10 µL) for Clonic Seizures” value is given as “VV–H7 = V–H4”. In data set [5], the “pKa (Dap, Dab)” value was 5.46; the “pKa (Tyr)” value is recorded as 3.14; the “pKa (Val)” value was 7.10.
On to VVYPWT[Orn]-NH2 [V4], for which the “ED50 (median effective dose)” value is 5.09 µg in data set [3] (VV-hemorphin-5 analogs) and 3.63 µg in data set [1] (setting [12]). The TD50 (median minimal neurotoxic dose) in data set [2] (setting [13]) is greater than 20 mg/kg. Further, the “pKa constant (one value given)” value in data set [5] was 7.83, [48, 49].
As to VVY[Ac5c]WTQRF-NH2 [VV-H-2], the “ED50 (median effective dose)” value in data set [3] (setting [15]) was 5.69 µg. Also, in data set [5], the “pKa (Tyr)” value is 5.34 and the “pKa (Val)” value is listed as 8.04.
With VVY[Ac5c]WT[Dab]RF-NH2 [VV-H-7], the “ED50 (median effective dose)” value in data set [3] (setting [15]) was 0.89 µg. For the same molecule, in data set [5], the “pKa (Dap, Dab)” value is given as 7.26; the “pKa (Tyr)” value was 4.70; the “pKa (Val)” value is reported as 8.21.
Consider VVY[Ac5c]WT[Dap]RF-NH2 [VV-H-6], for which, in data set [5], the “pKa (Dap, Dab)” value was 6.87; the “pKa (Tyr)” value is recorded as 4.72; the “pKa (Val)” value was 8.15.
For the molecule VVY[Ac6c]WTQRF-NH2 [VV-H-3], in data set [3] (setting [15]), the “ED50 (median effective dose)” value is reported as 5.69 µg. Moreover, in data set [5], the “pKa (Tyr)” value is given as 4.83 and the “pKa (Val)” value was 7.49.
Consider VVY[Ac6c]WT[Dab]RF-NH2 [VV-H-9], for which the “ED50 (median effective dose)” value in data set [3] (setting [15]) was 1.09 µg. Moreover, in data set [5], the “pKa (Dap, Dab)” value is recorded as 8.80; the “pKa (Tyr)” value was 4.66; the “pKa (Val)” value was 9.08.
For the molecule VVY[Ac6c]WT[Dap]RF-NH2 [VV-H-8], the “ED50 (median effective dose)” value in data set [3] (setting [15]) is 1.01 µg. In data set [5], the “pKa (Dap, Dab)” value was 8.03; the “pKa (Tyr)” value was 5.27; the “pKa (Val)” value is recorded as 9.20.
As to Y[Ac5c]WT-NH2 [P4-1], the “ED50 (median effective dose)” value in data set [3] (hemorphin-4 analogs) is recorded as 0.52 µg. For the same molecule, in data set [5], the pKa1 is 3.89 and the pKa2 is 6.52.
Regarding Y[Ac6c]WT-NH2 [P4-2], the “ED50 (median effective dose)” value in data set [3] (hemorphin-4 analogs) is given as 2.16 µg. Further, the “ED50 (median effective dose)” value in data set [1] (setting [8]) is reported as 2.33 µg. Further, the TD50 (median minimal neurotoxic dose) in data set [2] (setting [9]) is greater than 10 mg/kg. Further, in data set [5], the pKa1 was 3.93 and the pKa2 was 6.71.
With Y[dR]F[Sar] [TAPS], the concentration for half-maximal inhibition (IC50) in data set [6] was 1.9 nM.
On to [Aib]VVYPWTQ-NH2 [V7], for which the figures for the “ED50 (median effective dose)” value in data set [3] (VV-hemorphin-5 analogs) and in data set [1] (setting [12]) were 6.61 µg and 16.55 µg, respectively. Besides, the TD50 (median minimal neurotoxic dose) in data set [2] (setting [13]) was greater than 20 mg/kg. Besides, the “pKa constant (one value given)” value in data set [5] is 8.17, [48, 49].
For [dV]VYPWTQR[dF]-NH2 [H7-4], the “ED50 (median effective dose)” value in data set [1] (setting [10]) is given as 2.54 µg. Besides, the TD50 (median minimal neurotoxic dose) in data set [2] (setting [11]) is greater than 15 mg/kg. Moreover, in data set [5], the pKa1 is on record as 3.22 and the pKa2 was 6.52.
Consider “rhodamineB-Gly-Tyr-Pro-Trp-Thr-NH2 [Rh-1]”, for which, in data set [5], the pKa1 was 2.81 and the pKa2 is listed as 6.60.
For “rhodamineB-β-Ala-Tyr-Pro-Trp- Thr-NH2 [Rh-2]”, in data set [5], the pKa1 was 2.78 and the pKa2 is given as 6.38.
For the molecule “rhodamineB-γ-Abu-Tyr-Pro-Trp-Thr-NH2 [Rh-3]”, in data set [5], the pKa1 was 2.86 and the pKa2 is on record as 6.39.
